Three compounds from patent publication US6348201B2, “External composition for skin comprising sphingoglycolipid” (Kibun Food Chemifa Co., Ltd., priority 1997, dated 2002) can be followed below.

The assay relates to hairless mice (Skh:hr-1). As to the kind of experiment: Test for evaluating moisturizing and skin roughness prevention effects: transcutaneous transpiration measured with a hydrograph. Particulars: 10th day, average of five mice, relative to control (0.5% Triton X-150, 9 g/m^2/h) as 100; Triton X-150 pretreated, middle-wavelength UV 0.15 J/cm^2, samples applied once a day on rear back. Type of assay: in vivo. The procedure: Twenty male hairless mice of 9-week old (Skh:hr-1, Nihon SLC) were treated with 0.5% Triton X-150 (50 μl) in a circular area of 2.5 cm diameter on their rear backs. The once-a-day application was continued for 5 days. On the 6th day and thereafter, middle-wavelength UV light was irradiated at a dose of 0.15 J/cm^2 using a SE lamp (manufactured by Toshiba Medical Instruments Co., Ltd.), and Samples 1 to 5 (dissolved in 0.5% Triton X-150) listed below and control sample (0.5% Triton X-150) were applied. These procedures were followed once a day and continued up to the 10th day. Five hairless mice were subjected to each test for Samples or the control.
After the middle-wavelength UV irradiation and the sample application were completed on the 10th day, amount of transcutaneous transpiration was measured using a hydrograph (model AMU-3: manufactured by Fauchon Co., Ltd.) to determine an average value for the five mice. Results were shown in the table below, where the values are expressed in relative values assuming the control (9 g/m^2/h) as 100.

Turning to “Glyceroglycolipid [Sample 3 (comparison)]”, the Relative transcutaneous transpiration turned out to be 123.
Consider Ganglioside [Sample 4 (comparison)], for which the Relative transcutaneous transpiration was 89.
Regarding `CCCCCCCCCCCCC/C=C\C(O)C(CO)NC(=O)O[C@@H]1O[C@H](CO)[C@H](O)[C@H](O)[C@H]1O` (stereo partly drawn) [Sample 5 (comparison), Galactocerebroside], the Relative transcutaneous transpiration is recorded as 91.
